Test results reported in patent US6624179B1, “Geometrical isomers of acrylonitrile compounds, mixture thereof, and process for producing these” (Ishihara Sangyo Kaisha Ltd., priority 1999, dated 2003).
Entries after “also recorded” stand apart in the source; their conditions may differ.

Columns and labels:
[1] = tested on: two-spotted spider mite (Tetranychus urticae); experiment: Test Example 2: spray application to eggplant infested with two-spotted spider mite, greenhouse; type: in vivo; settings: for Number of adult two-spotted spite mite 5th day / Number of adult two-spotted spite mite 9th day / Number of adult two-spotted spite mite 12th day / Number of adult two-spotted spite mite 15th day: 150 ppm active ingredient, sprayed; for Number of adult two-spotted spite mite 5th day: 10% water-based suspension concentrate in water with 0.02% spreader, 5th day after application; for Number of adult two-spotted spite mite 9th day: 9th day after application; for Number of adult two-spotted spite mite 12th day: 12th day after application; for Number of adult two-spotted spite mite 15th day: 15th day after application; for pesticidal effects (in words): 150 ppm, two-spotted spider mite on eggplant, conclusion from Table 2; for Number of adult two-spotted spite mite Before application: baseline count before application, on the eggplant
Source text: A 10% water-based suspension concentrate of each of compounds H and G was dispersed in water containing 0.02% of a spreader (Shinrino, manufactured by NIHON NOHYAKU CO., LTD.) to obtain a chemical solution wherein the active ingredient was 150 ppm. Such a chemical solution was applied to an eggplant (Solanum melongena) infested with two-spotted spider mite (Tetranychus urticae) (planted in a plastic pot having a diameter of 17 cm and a height of 19 cm) by means of a sprayer, and then left to stand in a greenhouse. Before the application and on the 5th day, 9th day, 12th day and 15th day after the application, the number of adult two-spotted spider mite on the eggplant was counted.

[2] = tested on: citrus red mite (Panonychus citri); experiment: Test Example 1: spray application to satsuma mandarin infested with citrus red mite, greenhouse; type: in vivo; settings: for Number of adult citrus red mite 7th day / Number of adult citrus red mite 12th day / Number of adult citrus red mite 18th day / Number of adult citrus red mite 26th day: 150 ppm active ingredient, sprayed; for Number of adult citrus red mite 7th day: 10% water-based suspension concentrate, 7th day after application; for Number of adult citrus red mite 12th day: 12th day after application; for Number of adult citrus red mite 18th day: 18th day after application; for Number of adult citrus red mite 26th day: 26th day after application; for pesticidal effects (in words): 150 ppm, citrus red mite on satsuma mandarin, conclusion from Table 1; for Number of adult citrus red mite Before application: baseline count before application, all leaves of satsuma mandarin tree
Source text: A 10% water-based suspension concentrate of each of compound D and compound E was dispersed in water to obtain a chemical solution wherein the active ingredient is 150 ppm. Such a chemical solution was applied to satsuma mandarin (Citrus unshiu Marc.) infested with citrus red mite (Panonychus citri) (planted in a plastic pot having a diameter of 24 cm and a height of 29 cm) by means of a sprayer and then left to stand in a greenhouse. Before the application and on the 7th day, 12th day, 18th day and 26th day after the application, the number of adult citrus red mite on all leaves of the satsuma mandarin tree was counted.

| Compound | Number of adult two-spotted spite mite 5th day [1] | Number of adult two-spotted spite mite 9th day [1] | Number of adult two-spotted spite mite 12th day [1] | Number of adult two-spotted spite mite 15th day [1] | pesticidal effects (in words) [1] | Number of adult two-spotted spite mite Before application [1] | Number of adult citrus red mite 7th day [2] | Number of adult citrus red mite 12th day [2] | Number of adult citrus red mite 18th day [2] | Number of adult citrus red mite 26th day [2] | pesticidal effects (in words) [2] | Number of adult citrus red mite Before application [2] |
| --- | --- | --- | --- | --- | --- | --- | --- | --- | --- | --- | --- | --- |
| CSC(=S)OC(=C(C#N)c1ccc(Cl)cc1)c1ccccc1C(F)(F)F [H, α-(4-chlorophenyl)-β-(S-methyldithiocarbonyloxy)-β-(2-trifluoromethylphenyl)acrylonitrile] | 0 | 1 | 18 | 42 | excellent pesticidal effects | 111 | – | – | – | – | – | – |
| CSC(=O)OC(=C(C#N)c1ccc(C(C)(C)C)cc1)c1ccccc1C(F)(F)F [Compound D, α-(4-tert-Butylphenyl)-β-[(methylthio)carbonyloxy]-β-(2-trifluoromethylphenyl)acrylonitrile] | – | – | – | – | – | – | 0 | 4 | 2 | 65 | excellent pesticidal effects | 111 |
| CSC(=O)OC(=C(C#N)c1ccc(C(C)(C)C)cc1)c1ccccc1C(F)(F)F [Compound E, α-(4-tert-Butylphenyl)-β-[(methylthio)carbonyloxy]-β-(2-trifluoromethylphenyl)acrylonitrile] | – | – | – | – | – | – | 0 | 2 | 1 | 4 | excellent pesticidal effects; also recorded: superior pesticidal effects | 106 |
| CSC(=S)OC(=C(C#N)c1ccc(Cl)cc1)c1ccccc1C(F)(F)F [Compound G, α-(4-Chlorophenyl)-β-(S-methyldithiocarbonyloxy)-β-(2-trifluoromethylphenyl)acrylonitrile] | 1 | 0 | 2 | 4 | excellent pesticidal effects; also recorded: superior pesticidal effects | 106 | – | – | – | – | – | – |
